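Briefly, cells in 96-well plates were exposed to five compound concentrations for 48 h, and endpoints were estimated by linear interpolation. GI50 = concentration required for 50% inhibition of growth. TGI marks complete inhibition of growth.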
How the values were obtained:
Test in all cases: DTP human tumour cell line panel, 48 h
SR leukemia = test system: SR leukemia
OVCAR-4 ovarian = test system: OVCAR-4 ovarian
UO-31 renal = test system: UO-31 renal
COLO 205 colon = test system: COLO 205 colon
HCC-2998 colon = test system: HCC-2998 colon
HCT-116 colon = test system: HCT-116 colon
ACHN renal = test system: ACHN renal
M14 melanoma = test system: M14 melanoma
MDA-MB-231 breast = test system: MDA-MB-231 breast
NCI/ADR-RES ovarian = test system: NCI/ADR-RES ovarian

Structure (SMILES): COC(=O)C12C3C4C5(C(=O)OC)C(C1C35C(=O)N(C(C)C)C(C)C)C42C(=O)N(C(C)C)C(C)C (stereo not given)
- TGI (SR leukemia): > 50 µM
- TGI (OVCAR-4 ovarian): > 50 µM
- TGI (UO-31 renal): > 50 µM
- TGI (COLO 205 colon): > 50 µM
- TGI (HCC-2998 colon): > 50 µM
- TGI (HCT-116 colon): 33.6 µM
- TGI (ACHN renal): > 50 µM
- TGI (M14 melanoma): > 50 µM

Structure (SMILES): O=C(/C=C/c1c(O)ccc2ccccc12)c1ccc2ccccc2c1
- TGI (OVCAR-4 ovarian): > 100 µM
- TGI (UO-31 renal): > 100 µM
- TGI (COLO 205 colon): > 100 µM
- TGI (HCC-2998 colon): > 100 µM
- TGI (HCT-116 colon): > 100 µM
- TGI (ACHN renal): > 100 µM

Structure (SMILES): COc1cc(/C=C2\C(=O)Nc3ccc(F)cc32)cc(OC)c1OC
- GI50 (OVCAR-4 ovarian): 60 µM
- TGI (OVCAR-4 ovarian): > 100 µM
- GI50 (UO-31 renal): 11.9 µM
- TGI (UO-31 renal): > 100 µM
- GI50 (COLO 205 colon): 62.7 µM
- TGI (COLO 205 colon): > 100 µM
- GI50 (MDA-MB-231 breast): 3.16 µM
- TGI (MDA-MB-231 breast): 36.3 µM
- GI50 (HCT-116 colon): 21.2 µM
- TGI (HCT-116 colon): > 100 µM
- GI50 (ACHN renal): 50 µM
- TGI (ACHN renal): > 100 µM
- GI50 (M14 melanoma): 63.5 µM
- TGI (M14 melanoma): > 100 µM
- GI50 (NCI/ADR-RES ovarian): 18.9 µM
- TGI (NCI/ADR-RES ovarian): > 100 µM

Structure (SMILES): O=C(CCC(=O)Nc1cccc(Cl)c1)CC(=O)c1ccc(Cl)cc1
- TGI (SR leukemia): > 100 µM
- TGI (OVCAR-4 ovarian): > 100 µM
- TGI (UO-31 renal): > 100 µM
- TGI (COLO 205 colon): > 100 µM
- TGI (HCC-2998 colon): > 100 µM
- TGI (HCT-116 colon): > 100 µM
- TGI (ACHN renal): > 100 µM
- TGI (M14 melanoma): > 100 µM

Structure (SMILES): CCN(CC)CC(C)(C)C(=O)/C=C/c1ccc(Cl)c(Cl)c1
- GI50 (SR leukemia): 1.75 µM
- TGI (SR leukemia): 8.91 µM
- GI50 (OVCAR-4 ovarian): 1.63 µM
- TGI (OVCAR-4 ovarian): 3.2 µM
- GI50 (UO-31 renal): 1.32 µM
- TGI (UO-31 renal): 2.72 µM
- GI50 (COLO 205 colon): 1.7 µM
- TGI (COLO 205 colon): 3.34 µM
- GI50 (MDA-MB-231 breast): 2.06 µM
- TGI (MDA-MB-231 breast): 4.26 µM
- GI50 (HCC-2998 colon): 1.61 µM
- TGI (HCC-2998 colon): 3.08 µM
- GI50 (HCT-116 colon): 1.79 µM
- TGI (HCT-116 colon): 3.2 µM
- GI50 (ACHN renal): 1.61 µM
- TGI (ACHN renal): 3.09 µM
- GI50 (M14 melanoma): 1.66 µM
- TGI (M14 melanoma): 3.39 µM

Structure (SMILES): N#C/C(=C\c1ccc(O)c(O)c1)C(N)=O
- TGI (OVCAR-4 ovarian): > 100 µM
- TGI (UO-31 renal): > 100 µM
- TGI (COLO 205 colon): > 100 µM
- TGI (HCC-2998 colon): > 100 µM
- TGI (HCT-116 colon): 67.9 µM
- TGI (ACHN renal): > 100 µM
- TGI (M14 melanoma): > 100 µM

Structure (SMILES): CC1=C(C(=O)Nc2c(C)cccc2C)C(c2ccccc2Cl)C(C(=O)Nc2c(C)cccc2C)=C(C)N1
- TGI (OVCAR-4 ovarian): > 100 µM
- TGI (UO-31 renal): > 100 µM
- TGI (COLO 205 colon): > 100 µM
- TGI (HCC-2998 colon): > 100 µM
- TGI (ACHN renal): > 100 µM
- TGI (M14 melanoma): > 100 µM

Structure (SMILES): N#CC(/C(=N/NC(=O)C(=O)NN)C(=O)NC12CC3CC(CC(C3)C1)C2)c1ccccc1 (stereo not given)
- TGI (SR leukemia): > 100 µM
- TGI (OVCAR-4 ovarian): > 100 µM
- TGI (UO-31 renal): > 100 µM
- TGI (COLO 205 colon): > 100 µM
- TGI (HCC-2998 colon): > 100 µM
- TGI (HCT-116 colon): > 100 µM
- TGI (ACHN renal): > 100 µM
- TGI (M14 melanoma): > 100 µM

Structure (SMILES): CCCCCc1c(C)[nH]c(/C=C2\N=C(c3ccc[nH]3)C=C2CC)c1C
- GI50 (OVCAR-4 ovarian): < 0.0176 µM
- TGI (OVCAR-4 ovarian): 0.727 µM
- GI50 (UO-31 renal): 0.0134 µM
- TGI (UO-31 renal): 0.0357 µM
- GI50 (COLO 205 colon): 0.0188 µM
- TGI (COLO 205 colon): 0.134 µM
- GI50 (MDA-MB-231 breast): < 0.01 µM
- TGI (MDA-MB-231 breast): 0.0186 µM
- GI50 (HCC-2998 colon): < 0.01 µM
- TGI (HCC-2998 colon): 0.174 µM
- GI50 (HCT-116 colon): < 0.01 µM
- TGI (HCT-116 colon): 0.0255 µM
- GI50 (ACHN renal): 0.0225 µM
- TGI (ACHN renal): 0.189 µM
- GI50 (M14 melanoma): < 0.01 µM
- TGI (M14 melanoma): 0.0237 µM
- GI50 (NCI/ADR-RES ovarian): 0.0139 µM
- TGI (NCI/ADR-RES ovarian): 0.124 µM

Structure (SMILES): O=C(Nc1cccc(Cl)c1Cl)c1cccc(NC2=C(Cl)C(=O)N(Cc3ccccc3)C2=O)c1
- GI50 (SR leukemia): 4.16 µM
- TGI (SR leukemia): 23.5 µM
- GI50 (OVCAR-4 ovarian): 57.7 µM
- TGI (OVCAR-4 ovarian): > 100 µM
- GI50 (UO-31 renal): 21.1 µM
- TGI (UO-31 renal): > 100 µM
- GI50 (COLO 205 colon): > 100 µM
- TGI (COLO 205 colon): > 100 µM
- GI50 (MDA-MB-231 breast): 32.2 µM
- TGI (MDA-MB-231 breast): > 100 µM
- GI50 (HCT-116 colon): 22.1 µM
- TGI (HCT-116 colon): > 100 µM
- GI50 (ACHN renal): 54.7 µM
- TGI (ACHN renal): > 100 µM
- GI50 (M14 melanoma): 35.8 µM
- TGI (M14 melanoma): > 100 µM
- GI50 (NCI/ADR-RES ovarian): 12.6 µM
- TGI (NCI/ADR-RES ovarian): 62.5 µM

Structure (SMILES): CC(C)(C)N1CC2(CCCCC2)C1=O
- TGI (SR leukemia): > 100 µM
- TGI (OVCAR-4 ovarian): > 100 µM
- TGI (UO-31 renal): > 100 µM
- TGI (COLO 205 colon): > 100 µM
- TGI (HCC-2998 colon): > 100 µM
- TGI (HCT-116 colon): > 100 µM
- TGI (ACHN renal): > 100 µM
- TGI (M14 melanoma): > 100 µM

Structure (SMILES): COc1ccc(C(=O)C(CO)Oc2ccccc2OC)cc1OC (stereo not given)
- TGI (OVCAR-4 ovarian): > 100 µM
- TGI (UO-31 renal): > 100 µM
- TGI (COLO 205 colon): > 100 µM
- TGI (HCC-2998 colon): > 100 µM
- TGI (HCT-116 colon): > 100 µM
- TGI (ACHN renal): > 100 µM
- TGI (M14 melanoma): > 100 µM

Structure (SMILES): CC(=O)OCC1OC([S-])C(OC(C)=O)C(OC(C)=O)C1OC(C)=O.CC[PH+](CC)CC.CC[PH+](CC)CC.[Au].[Au] (stereo not given)
- GI50 (OVCAR-4 ovarian): 0.506 µM
- TGI (OVCAR-4 ovarian): 1.88 µM
- GI50 (UO-31 renal): 1.6 µM
- TGI (UO-31 renal): 2.98 µM
- GI50 (COLO 205 colon): 0.198 µM
- TGI (COLO 205 colon): 0.391 µM
- GI50 (HCC-2998 colon): 0.801 µM
- TGI (HCC-2998 colon): 1.95 µM
- GI50 (HCT-116 colon): 0.397 µM
- TGI (HCT-116 colon): 1.7 µM
- GI50 (ACHN renal): 1.01 µM
- TGI (ACHN renal): 2.38 µM
- GI50 (M14 melanoma): 0.14 µM
- TGI (M14 melanoma): 0.322 µM

Structure (SMILES): O=C(O)c1cccc(OCCO)c1
- TGI (SR leukemia): > 100 µM
- TGI (OVCAR-4 ovarian): > 100 µM
- TGI (UO-31 renal): > 100 µM
- TGI (COLO 205 colon): > 100 µM
- TGI (MDA-MB-231 breast): > 100 µM
- TGI (HCT-116 colon): > 100 µM
- TGI (ACHN renal): > 100 µM
- TGI (M14 melanoma): > 100 µM
- TGI (NCI/ADR-RES ovarian): > 100 µM

Structure (SMILES): CN=NN(C)C(=O)NC
- TGI (SR leukemia): > 100 µM
- TGI (OVCAR-4 ovarian): > 100 µM
- TGI (UO-31 renal): > 100 µM
- TGI (COLO 205 colon): > 100 µM
- TGI (HCC-2998 colon): > 100 µM
- TGI (HCT-116 colon): > 100 µM
- TGI (ACHN renal): > 100 µM
- TGI (M14 melanoma): > 100 µM

Structure (SMILES): O=C(/C=C/c1ccccc1)/C=C/c1ccccc1
- TGI (SR leukemia): 67.1 µM
- TGI (OVCAR-4 ovarian): 53.2 µM
- TGI (UO-31 renal): > 100 µM
- TGI (COLO 205 colon): > 100 µM
- TGI (HCC-2998 colon): > 100 µM
- TGI (HCT-116 colon): 32.1 µM
- TGI (ACHN renal): 38.2 µM
- TGI (M14 melanoma): 39.8 µM

Structure (SMILES): Cc1[nH][nH]c(=O)c1C=Nc1ccc(-c2nc3ccccc3[nH]2)cc1
- GI50 (SR leukemia): 39.7 µM
- TGI (SR leukemia): 97.1 µM
- GI50 (OVCAR-4 ovarian): 24.4 µM
- TGI (OVCAR-4 ovarian): 76.5 µM
- GI50 (UO-31 renal): 31.8 µM
- TGI (UO-31 renal): > 100 µM
- GI50 (COLO 205 colon): 19.5 µM
- TGI (COLO 205 colon): 48.1 µM
- GI50 (MDA-MB-231 breast): 12.8 µM
- TGI (MDA-MB-231 breast): 33.8 µM
- GI50 (ACHN renal): 30.1 µM
- TGI (ACHN renal): > 100 µM
- GI50 (M14 melanoma): 30.6 µM
- TGI (M14 melanoma): 50.9 µM

Structure (SMILES): N#CC(C#N)=c1[nH]c2cccc3c2-c2c(cccc2c3=C(C#N)C#N)[nH]1
- TGI (SR leukemia): > 100 µM
- TGI (OVCAR-4 ovarian): > 100 µM
- TGI (UO-31 renal): > 100 µM
- TGI (COLO 205 colon): > 100 µM
- TGI (HCC-2998 colon): > 100 µM
- TGI (HCT-116 colon): > 100 µM
- TGI (M14 melanoma): > 100 µM

Structure (SMILES): c1ccc2c3ccn4cc5c(cc4c-3nc2c1)CCCC5
- GI50 (OVCAR-4 ovarian): 2.85 µM
- TGI (OVCAR-4 ovarian): 11 µM
- GI50 (UO-31 renal): 14.6 µM
- TGI (UO-31 renal): 29.8 µM
- GI50 (COLO 205 colon): 2.37 µM
- TGI (COLO 205 colon): 6.16 µM
- GI50 (MDA-MB-231 breast): 4.47 µM
- TGI (MDA-MB-231 breast): 20.8 µM
- GI50 (HCC-2998 colon): 4.3 µM
- TGI (HCC-2998 colon): 15 µM
- GI50 (HCT-116 colon): 2.72 µM
- TGI (HCT-116 colon): 8.94 µM
- GI50 (ACHN renal): 4.75 µM
- TGI (ACHN renal): 17.5 µM
- TGI (M14 melanoma): 6.41 µM
- GI50 (NCI/ADR-RES ovarian): 55 µM
- TGI (NCI/ADR-RES ovarian): > 100 µM
